In patent US11708393B2, “Targeted non-invasive imaging probes of EGFR expressing cells” (priority 2011, dated 2023):
“Also recorded” adds a separate entry of the source. Cy5.5 = cyanine fluorochrome label, coupled as NHS ester; AEEA = NCCOCCOCC(=O)O

Experiments:
[1] = test system: Gli36Δ5 orthotopic brain tumors overexpressing EGFR; experiment: Ex vivo fluorescence imaging of brains with orthotopic Gli36Δ5 tumors; type: in vivo, mice; details: for accumulation in tumor, % of injected dose: 1 nmol/g tail vein, 1 hour, brains imaged ex vivo; for tumor targeting (in words): 1 nmol/g, ex vivo analysis of brain tissues
Method: NIH athymic nude female mice (5-8 weeks and 20-25 g upon arrival, NCI-NIH) were maintained at the Animal Resource Center at Case Western Reserve University (Cleveland, Ohio) according to institutional policies. Cell for brain implantation were harvested with 1 mL 0.05% trypsin-EDTA (Gibco) and briefly washed with PBS. Trypsin was inactivated by the addition of serum-containing media. The resulting cell suspension was centrifuged at […] for 3 minutes. The cell suspension was centrifuged and the supernatant was removed after 2 washes in PBS. Finally, the cells were resuspended in […] PBS for brain implants per animal (250,000 cells per animal for brain implants). Immediately following the cell harvesting procedure, animals were inoculated. For brain tumor implantation, mice were anesthetized by intraperitoneal (i.p.) injection of 50 mg/kg ketamine/xylazine and fitted into a stereotaxic rodent frame (David Kopf Instruments). A small incision was made just lateral to midline to expose bregma suture. A small (1.0 mm) burr hole was drilled at anterior (AP)=+1, lateral (ML)=−2.5 from the bregma. Glioblastoma cells were slowly deposited at a rate of 1 μL/min in the right striatum at a depth of 3 mm from dura with a 10-μL syringe (23-G needle). The needle was slowly withdrawn and the incision was closed with 2 to 3 sutures. Brain tumors grew for 10 to 12 days as per IACUC protocols at which point in vivo imaging studies were conducted. As control for the effects of surgical intervention, animals were also subjected to the implantation procedure but Optical Imaging of Tumors with EGFR Overexpression received 2 μL PBS (sham animals). Animals were fed exclusively on a special rodent diet (Harlan Laboratories, Inc.; Tekland 2018S) to reduce autofluorescence.
Mice bearing brain tumors derived from Gli36Δ5 or U87-MG cells were administered with compounds at 1 nmol/g via tail vein injection. In vivo competition assays were done with mixture of compound 2 and 10-fold concentration of nonlabeled probe 5. Before injection, mice were anesthetized with isoflurane and subjected to tomographic and spectral fluorescence imaging. One hour after injection, animals were re-imaged. Brains were then extracted and imaged. The excised brains were embedded in Tissue-Tek optimum cutting temperature for cryosections for immunohistochemistry (IHC). Fluorescence-mediated molecular tomography (FMT) images were obtained using FMT2500 (Perkin-Elmer), and 3-dimensional reconstructions of fluorescent signals were acquired using the accompanying software TrueQuant. Quantitative fluorescent signals for Cy5.5 of compound 2 were calibrated as per manufacturer's instructions using the 680-channel. Region of interest (ROI) assigned on the basis of the precise placement of cells during implantation at 3 to 4 mm into the brain. ROI was corroborated with fluorescent signals from ex vivo imaging. Fluorescent multispectral images were obtained using the Maestro In-Vivo Imaging System (CRi, Inc.). […] Fluorescence images were acquired before treatment, immediately after and 1.5 hours after treatment. To compare signal intensities, ROIs were selected over the tumor or nontumor areas, and the change in fluorescence signal over baseline was determined. […] The total signal in the ROI defined in photons measured at the surface of the animal was divided by the area (in pixels). Spectral libraries were generated by assigning spectral peaks to background and fluorescence probe on tissue. […]

[2] = test system: Gli36Δ5 orthotopic brain tumors; experiment: In vivo FMT imaging of orthotopic Gli36Δ5 brain tumors; design: species or system mice
Method: (§1) NIH athymic nude female mice (5-8 weeks and 20-25 g upon arrival, NCI-NIH) were maintained at the Animal Resource Center at Case Western Reserve University (Cleveland, Ohio) according to institutional policies. Cell for brain implantation were harvested with 1 mL 0.05% trypsin-EDTA (Gibco) and briefly washed with PBS. Trypsin was inactivated by the addition of serum-containing media. The resulting cell suspension was centrifuged at […] for 3 minutes. The cell suspension was centrifuged and the supernatant was removed after 2 washes in PBS. Finally, the cells were resuspended in […] PBS for brain implants per animal (250,000 cells per animal for brain implants). […]
(§2) Mice bearing brain tumors derived from Gli36Δ5 or U87-MG cells were administered with compounds at 1 nmol/g via tail vein injection. […] Before injection, mice were anesthetized with isoflurane and subjected to tomographic and spectral fluorescence imaging. […] Fluorescence-mediated molecular tomography (FMT) images were obtained using FMT2500 (Perkin-Elmer), and 3-dimensional reconstructions of fluorescent signals were acquired using the accompanying software TrueQuant. Quantitative fluorescent signals for Cy5.5 of compound 2 were calibrated as per manufacturer's instructions using the 680-channel. […] Fluorescence images were acquired before treatment, immediately after and 1.5 hours after treatment. […]

[3] = test system: A431 cells (high wild-type EGFR); experiment: Saturation binding and fluorescence uptake in A431 cells; type: cell-based, human; details: A431 cells incubated with compound plus EGF ligand
Description: We also examined the expression of EGFRvIII in the cell lines. […] In addition, we examined A431 cells, a squamous carcinoma cell line, that expresses high levels of wild-type EGFR.

Gli36Δ5 cells = experiment: Receptor uptake, cell-associated fluorescence in Gli36Δ5 cells; type: cell-based, human; details: 1 μmol/L compound
Method: FIG. 2 illustrates a plot showing cell associated fluorescence measured using spectrofluorometry at the indicated times for Gli36Δ5 cells incubated with 1 μmol/L of compounds 1 to 4 [Cy5.5-(AEEA)n-EGFpep].
FIGS. 3(A-B) illustrate images showing Gli36Δ5 (A) and U87-MG (B) cells incubated with 1 μmol/L compounds for the indicated times. Uptake of the compounds was assessed using epifluorescence microscopy. Images were taken at ×40 magnification. Scale bar, 50 μm.
Gli36Δ5 or U87-MG cell lines plated in 96-well culture plates (20,000 cells per well; 3 wells per condition) were incubated over indicated time periods with […] of Cy5.5-labeled EGF peptides 2, 3, and 4 at 37° C. and 5% CO2. Cells were briefly rinsed with HEPES buffer and imaged with a Tecan Infinite M200 fluorescence plate reader (excitation 670 nm, emission 700 nm).

[4] = test system: U87-MG orthotopic brain tumors; experiment: In vivo FMT imaging of orthotopic U87-MG brain tumors; design: species or system mice
Method: as §1, §2

[5] = In vivo FMT imaging of sham surgery animals; design: species or system mice
Method: as §1, §2

EGFR = target: T1, EGFR (Homo sapiens, UniProt P00533); experiment: Saturation binding assay of Cy5.5-labeled peptides on Gli36Δ5 cells; details: for Kd: 37° C., 90 minutes, read-out: apparent binding affinity Kd from saturation binding assay
T1 construct: endogenous in cells; host or cells: Gli36Δ5 human glioblastoma cells
Method: To determine binding affinities of the Cy5.5-labeled peptides 1 to 4 to EGFR, a saturation binding assay protocol using labeled fluorescence ligand against cell surface receptors was adapted as previously reported. Briefly, Gli36Δ5 cells were plated 20,000 cells per well were plated on black Costar 96-well plates (cat. no. 3603). Probes were diluted to range of concentration ([…]) in growing media with 0.3% bovine serum albumin (BSA) and added into wells and incubated at 37° C. for 90 minutes at 5% CO2. Cells were then washed with PBS twice and dried. DMSO was added before reading fluorescence (excitation 670 nm, emission 700 nm) with a Tecan Infinite M200 plate reader. Saturation binding assay data were in quadruplicates and analyzed using one site binding classical equation for nonlinear regression analysis with the GraphPad Prism version 4.0.
Binding affinity was determined with nonlinear regression analysis with one site binding hyperbola with an equation: […], where Bmax is the maximal binding site and the Kd is the concentration required to reach half-maximal binding. ANOVA analysis at 95% confidence interval (CI) was used to compare treatments (*, […]; confidence interval, ***, […]). To compare live animal FMT, nonparametric one-way ANOVA analyses (Kruskal-Wallis tests) and the median differences were considered significant with P=0.0220.

[6] = target: human epidermal growth factor receptor (EGFR) (human) (UniProt P00533); experiment: cell-based or functional assay

Molecule | accumulation in tumor, % of injected dose [1] | tumor targeting (in words) [1] | cellular uptake / accumulation of fluorescence (in words) (Gli36Δ5 cells) | binding affinity to the cells (in words) (EGFR) | Kd (EGFR) [µM] | also measured
Cy5.5-(AEEA)1-NYQTPVYGWIYH-amide ({Cy5.5-AEEA}-NYQTPVYGWIYH-NH2) [Compound 6, Cy5.5-labeled scrambled peptide, specificity control, reference compound] | 0.006 % of injected dose | did not target the tumor |  |  |  | 
Cy5.5-(AEEA)1-YHWYGYTPQNVI-amide [Compound 2] | 1.1 % of injected dose | targeted the tumor efficiently | greatest accumulation of fluorescence | micromolar range | 8.9 | fluorescence signal as injected dose ([2]; Gli36Δ5 brain tumors, 1 nmol/g, 1 hour, FMT): 1.1%; amount of fluorescence in matching ROI (FMT 3-dimensional reconstruction) ([2]; Gli36Δ5 tumor): 9,271 nmol/L; cell fluorescence in the presence of EGF ligand (in words) [3]: increasing fluorescence in the presence of the EGF ligand; fluorescence signal as injected dose ([4]; U87-MG brain tumors, 1 nmol/g, 1 hour, FMT): 0.27%; amount of fluorescence in matching ROI (FMT 3-dimensional reconstruction) ([4]; U87-MG tumor): 1,608 nmol/L; tumor targeting (in words) ([1]; listed as compound 2): targets the tumor significantly (***, P>0.0001) more efficiently than the scrambled peptide 6; amount of fluorescence in matching ROI (FMT 3-dimensional reconstruction) [5]: 272 nmol/L
Cy5.5-(AEEA)2-YHWYGYTPQNVI-amide [Compound 3] |  |  | Neither compound 1 (no linker) nor either of the molecules with greater linker numbers (compounds 3 and 4) was taken up by the cells to the same extent as compound 2 | micromolar range | 64.4 | 
Cy5.5-(AEEA)3-YHWYGYTPQNVI-amide [Compound 4] |  |  | Neither compound 1 (no linker) nor either of the molecules with greater linker numbers (compounds 3 and 4) was taken up by the cells to the same extent as compound 2; also recorded: taken up by cells better than compound 3 | micromolar range | 123 | 
Cy5.5-YHWYGYTPQNVI-amide [Compound 1] |  |  | Neither compound 1 (no linker) nor either of the molecules with greater linker numbers (compounds 3 and 4) was taken up by the cells to the same extent as compound 2 | micromolar range | 18.5 | 
NYQTPVYGWIYH (Cy5.5-(AEEA)1 at the N-terminus; C-terminal amide) [Compound 6: Cy5.5-(AEEA)1-…-amide scrambled] |  |  |  |  |  | percent of injected dose delivered to Gli36Δ5 brain tumor (% of injected dose) [6]: 0.006
